The values that follow come from PMC8811960, “A Novel 2-Carbon-Linked Dimeric Artemisinin With Potent Antileukemic Activity and Favorable Pharmacology” (Frontiers in Oncology, 2022).

One data set has as its system K562. The data set can be described thus: alamarBlue growth inhibition, K562. Format: cell-based. To be noted: Homo sapiens, K562, 48h, mean of 2 independent assays ± SD. The procedure: (§1) Cytotoxicity was assessed using alamarBlue assays (Life Technologies, Grand Island, NY) following manufacturer’s guidelines. Cell death was verified by Annexin V/7-aminoactinomycin D (7AAD) staining (BioLegend, San Diego, CA) per manufacturer’s guidelines.
(The colour change of resazurin is a common sign of viable cells or microbes.)

For data set [1], the system named is MOLM14, MV4;11, and HL60 human AML cells. Also noted: method as in PMID 33560385. To be noted: ART631 200 nM, VEN 50 nM, SOR 5 µM; MOLM14, MV4;11, HL60; cited from earlier work.
A further data set can be described thus: Stability in plasma. Format: in vitro ADME, human and mouse. To be noted: species not given. On the procedure: The metabolic stability of ART631 was assessed in human and mouse plasma and liver microsomes (LM). For phase I microsomal stability assays, analogs (10 µM in <1% acetonitrile) were incubated in PBS containing liver microsomes, with or without cofactors ([22]). Microsomal controls (without cofactors) were used to determine non-enzymatic degradation. All experiments were incubated at 37°C for 1h and performed in duplicate. Reactions were stopped with acetonitrile and analyzed as described below.
We compared the in vitro stability of ART576 and ART631 ( Table 3 ). ART576 was stable in plasma (<10% degradation), but unstable with degradation of >70% in human liver microsomes with co-factors and >90% in mouse liver microsomes with co-factors ( Table 3 ).

A further data set has as its system U937. The data set can be described thus: alamarBlue growth inhibition, U937. Format: cell-based. To be noted: Homo sapiens, U-937, U937, 48h, mean of 2 independent assays ± SD. The procedure: as §1
Data set [2] concerns C/EBP homologous protein (CHOP). The data set can be described thus: Western blot for CHOP. Type of data set: cell-based, human. To be noted: MOLM14, 200 nM, 18h, similar results in MV4;11 and ML2. On the procedure: (§2) Cells were pre-treated with […] ROS detection reagent 5-(and 6-)-chloromethyl-2’,7’-dichlorodihydrofluorescein diacetate (CM-H2DCFDA, Life Technologies) for 30 min, followed by the iron chelator deferoxamine mesylate (DFO; 11 mM) for 60 min. Cells were then treated with ART631 (200 nM) or DMSO control for 18h, with subsequent analysis by flow cytometry. Western blotting and quantitative reverse transcription PCR (qRT-PCR) to assess for molecular markers of ROS-mediated apoptosis were performed as previously described ([20]).
(§3) Figure 4 ART631 elevated ROS and CHOP levels and reduced MCL1 expression in MOLM14 AML cells. (A) MOLM14 AML cells were pre-treated with ROS detection reagent CM-H2DCFDA ([…]) for 30 min, pre-treated with deferoxamine mesylate (DFO; 11 mM) for 60 min, and then treated with ART631 (200 nM) or DMSO control for 18h. They were then analyzed by flow cytometry. Graph represents %CM-H2DCFDA fluorescence compared to vehicle (DMSO) control treated cells. Error bars represent SD from 3 independent experiments. (B) MOLM14 AML cells were treated for 18h with vehicle, AS (10 uM), ART838 (200 nM), ART631 (200 nM), cytarabine (AraC; 150 nM), or SOR (5 uM). Protein was isolated and western blotted for MCL1, BCL2, CHOP, and β-actin. (C) MOLM14 cells were treated as in (B) for 18h, total RNA isolated, cDNA synthesized, and SYBR Green qRT-PCR performed in triplicates. […]

The next data set relates to MCL1. The data set can be described thus: Western blot for MCL1. Type of data set: cell-based, human. To be noted: MOLM14, 200 nM, 18h, similar results in MV4;11 and ML2. On the procedure:
as §2, §3
Background: In western blotting, separated proteins are transferred to a membrane and probed.

Another data set relates to THP1. The data set can be described thus: alamarBlue growth inhibition, THP1. Format: cell-based. To be noted: Homo sapiens, THP-1, THP1, 48h, mean of 2 independent assays ± SD. On the procedure: as §1
The subject of another data set is HL60. The data set can be described thus: alamarBlue growth inhibition, HL60. To be noted: Homo sapiens, HL-60, HL60, 48h, mean of 2 independent assays ± SD. Format: cell-based. The procedure:
as §1

The subject of another data set is MOLM14. The data set can be described thus: alamarBlue growth inhibition, MOLM14. Format: cell-based. To be noted: Homo sapiens, MOLM-14; MOLM14, 48h, alamarBlue, mean of 2 independent assays ± SD; read-out: IC50. The procedure: as §1
In this experiment, provided to show the entire concentration:response range, MOLM14 AML cells were cultured with a range of concentrations of artesunate (AS), ART838, ART631, and ART576 for 48h. Graph indicates growth inhibition relative to vehicle (DMSO)-treated controls by alamarBlue absorbance assays. Data points and error bars represent mean and SD of 3 independent experiments done in triplicate.

Regarding `C=CCO/N=C(/C[C@H]1O[C@@H]2O[C@@]3(C)CC[C@H]4[C@H](C)CC[C@@H]([C@H]1C)[C@@]24OO3)[C@H]1O[C@@H]2O[C@@]3(C)CC[C@H]4[C@H](C)CC[C@@H]([C@H]1C)[C@@]24OO3` [ART631], the IC50 with K562 was greater than 1000 nM; in the data set with U937, 20 ± 5 nM; in the data set on THP1 it was 42 ± 2 nM; with HL60 it was 41 ± 9 nM; with MOLM14, 32 ± 4 nM. Further, the “cell death as single agents” value in [1] is “less than 15%”. The degradation in plasma in the data set “Stability in plasma” is reported as greater than 40%. For the same compound, the “level of CHOP protein” value in data set [2] is “increase”. For the same compound, the MCL1 protein expression entry in the data set with MCL1 was “decreased”.

By IC50 is commonly meant the concentration that inhibits the measured activity by half.
